Measured values as given in US20260207659A1, “COMPOSITIONS FOR USE IN THE PROPHYLACTIC TREATMENT OF HYPOCALCEMIA IN A RUMINANT ANIMAL” (VILOFOSS A/S, priority 2022, published 2026).
“And” between values parts separate entries of the source, which are not always exact repeats. Equal values may be shown once. Read-outs that look alike come from different tables or passages of the source.

Assay: In vitro phosphorus binding efficacy in rumen fluid, three phases mimicking the digestive tract of a ruminant (Thilsing et al.)
Parameters: species or system ruminant animal; Phosphate binding in comparison to control, % / P binding in comparison to control, %: concentration or dose not given beside the values
[1] = Table 1, from free phosphate, relative to Zeolite 4A
[2] = Table 1, from free phosphate, relative to untreated control
[3] = Table 2, phase 3 binding capacity, relative to Zeolite 4A
[4] = Table 2, phase 3 binding capacity, relative to control
[5] = phase 3 (after HCl and HCO3-, mimicking small intestine)
[6] = statement in words on Tables 1 and 2
[7] = supernatant of rumen fluid after addition of HCl and HCO3-, 0.06 g compound/8 ml rumen fluid

Phosphate binding in comparison to 4A, % [1] [%] | Phosphate binding in comparison to control, % [2] [%] | Phosphate binding in comparison to 4A, % [3] [%] | P binding in comparison to control, % [4] [%] | Phosphate Binding Capacity [5] | Phosphorus binding compared to other compounds, including Zeolite 4A alone [6] | Free Phosphate [7] [mmol] | SMILES | Free Phosphate [mmol] | P binding in comparison to control, % [%] | Phosphate Binding Capacity | Phosphate binding in comparison to 4A, % | Phosphate binding in comparison to control, % [%] | Phosphorus binding compared to other compounds, including Zeolite 4A alone
45.6 | 64.3 | 94 | 96 | 88.9 mg Phosphate/gram of compound | superior | 7.0 | [Cl][Al]([Cl])[Cl] [Aluminium chloride] | – | – | – | – | – | –
– | – | – | – | – | – | – | O=S(=O)([O-])[O-].[Fe+2] [Iron (II) sulphate] | 8.2 | 75 | 69.3 mg Phosphate/gram of compound | 36.5% and 56% | 58.3 | superior
22.6 | 49.2 | 72 | 84 | 77.7 mg Phosphate/gram of compound | superior | 10.0 | O=C([O-])[O-].O=C([O-])[O-].O=C([O-])[O-].[La+3].[La+3] [Lanthanum carbonate, hydrated, reference compound] | – | – | – | – | – | –

SMILES | Phosphate binding in comparison to 4A, % [1] [%] | Phosphate binding in comparison to control, % [2] [%] | Phosphate binding in comparison to 4A, % [3] [%] | P binding in comparison to control, % [4] [%] | Phosphate Binding Capacity [5] | Phosphorus binding compared to other compounds, including Zeolite 4A alone [6] | Free Phosphate [7] [mmol] | Free Phosphate [mmol] | P binding in comparison to control, % [%] | Phosphate Binding Capacity | Phosphate binding in comparison to 4A, % | Phosphate binding in comparison to control, % [%] | Phosphorus binding compared to other compounds, including Zeolite 4A alone
[Cl][La]([Cl])[Cl] [Lanthanum chloride] | 51.1 | 67.9 | 62 | 79 | 72.8 mg Phosphate/gram of compound | superior | 6.3 | – | – | – | – | – | –
